Key:
ROS1 = molecular target: T1, ROS1 (Homo sapiens, UniProt P08922); test: HTRF KinEASE-TK kinase activity inhibition assay, ROS1; format: biochemical; settings: ATP 1 µM
T1 construct: purchased SignalChem R14-11G-10
From the text: The following method was used to determine the inhibition degrees of the compounds of the present invention on the activity of recombinant human ROS1 kinase in vitro. In this method, HTRF®KinEASE-TK tyrosine kinase kit (article No. 62TK0PEB) of Cisbio company was used, the principle of the kit was based on time-resolved fluorescence resonance energy transfer (TF-FRET), and the inhibition of the compounds on the activity of the ROS1 kinase was reflected by determining a phosphorylation degree of a biotinylated polypeptide substrate mediated by ROS1 kinase. For detailed experimental operation, please refer to the kit instruction. […]
The experimental flow was briefly described as follows: a test compound was first dissolved in DMSO to prepare a storage solution, and then diluted in gradient with a buffer provided in the kit. […] An ATP Km value concentration of each ROS1 protein was determined by using an ATP solution diluted in gradient (Sangon Biotech (Shanghai) Co., Ltd., A600311). […] After incubation, fluorescence intensity values of each well at an excitation wavelength of 304 nm, and emission wavelengths of 620 nm and 665 nM were determined in a TF-FRET mode on a microplate reader, and the fluorescence intensity ratio 665/620 of each hole was calculated. […]

TRKB = molecular target: T2, TRKB (Homo sapiens, UniProt Q16620); test: HTRF KinEASE-TK kinase activity inhibition assay, TRKB; format: biochemical; settings: ATP 10 µM
T2 construct: purchased Carna bioscience 08-187
T2 sequence (Q16620 32-822): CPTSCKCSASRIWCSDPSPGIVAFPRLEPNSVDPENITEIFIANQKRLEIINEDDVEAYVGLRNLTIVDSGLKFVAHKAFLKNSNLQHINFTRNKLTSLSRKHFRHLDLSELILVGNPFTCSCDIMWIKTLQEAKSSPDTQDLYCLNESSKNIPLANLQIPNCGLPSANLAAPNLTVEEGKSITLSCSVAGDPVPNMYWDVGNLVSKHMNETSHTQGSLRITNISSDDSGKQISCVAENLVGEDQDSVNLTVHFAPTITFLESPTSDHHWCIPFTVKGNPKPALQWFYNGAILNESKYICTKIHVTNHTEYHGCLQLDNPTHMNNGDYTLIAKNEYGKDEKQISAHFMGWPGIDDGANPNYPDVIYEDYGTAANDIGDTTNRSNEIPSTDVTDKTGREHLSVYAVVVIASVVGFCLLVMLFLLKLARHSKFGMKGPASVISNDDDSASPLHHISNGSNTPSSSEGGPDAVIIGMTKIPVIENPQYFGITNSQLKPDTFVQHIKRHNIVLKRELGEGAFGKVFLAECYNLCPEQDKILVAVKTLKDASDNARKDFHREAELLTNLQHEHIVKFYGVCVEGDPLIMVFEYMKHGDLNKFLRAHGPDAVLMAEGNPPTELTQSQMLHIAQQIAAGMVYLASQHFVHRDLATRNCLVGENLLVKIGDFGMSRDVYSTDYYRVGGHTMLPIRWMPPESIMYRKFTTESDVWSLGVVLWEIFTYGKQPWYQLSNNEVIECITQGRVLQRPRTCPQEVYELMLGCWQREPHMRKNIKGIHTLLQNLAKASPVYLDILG
From the text: The following method was used to determine the inhibition degrees of the compounds of the present invention on the activity of recombinant human NTRK family kinase in vitro. In this method, HTRF®KinEASE-TK tyrosine kinase kit (article number: 62TK0PEB) of Cisbio company was used, and the principle of the kit was based on time-resolved fluorescence resonance energy transfer (TF-FRET), and the inhibition of the compounds on the activity of the NTRK kinase was reflected by determining a phosphorylation degree of a biotinylated polypeptide substrate mediated by NTRK kinase. For detailed experimental operation, please refer to the kit instruction. Recombinant human wild-type NTRK proteins were purchased from Carna bioscience (the article numbers were TRKA #08-186, TRKB #08-187 and TRKC #08-197 respectively), and recombinant human mutant NTRK proteins were purchased from SignalChem (the article numbers were TRKA G595R #N16-12BG-10, TRKA G667C # N16-12CG-10, and TRKC G623R # N18-12CH-10 respectively).
The experimental methods were operated according to the steps in the kit instruction, and were briefly described as follows: a test compound was first dissolved in DMSO to prepare a storage solution, and then diluted in gradient with a buffer provided in the kit. A final concentration of the test compound in the reaction system ranged from 1,000 nM to 0.004 nM. An ATP Km value concentration of each NTRK protein was determined by using an ATP solution diluted in gradient (Sangon Biotech (Shanghai) Co., Ltd., A600311). According to the Km value obtained, the ATP concentrations in the reaction system were set as 100 µM for TRKA, 10 µM for TRKB, 50 µM for TRKC, 7 µM for TRKA(G595R), 1 µM for TRKA(G667C) and 100 µM for TRKC(G623R). The reaction was carried out in a 384-well microplate. Firstly, the compound and a certain amount of corresponding NTRK protein were added to the wells and incubated for 5 minutes to 10 minutes at room temperature. Then, the ATP solution and the biotinylated polypeptide substrate solution were added to the reaction solution and incubated with shaking at room temperature for 60 minutes. Then, an anti-phosphorylated tyrosine antibody coupled with a europium compound and streptavidin coupled with modified allophycocyanin XL665 were added to the reaction, and continuously incubated with shaking at room temperature for 1 hour. After incubation, fluorescence intensity values of each well at an excitation wavelength of 304 nm, and emission wavelengths of 620 nm and 665 nM were determined in a TF-FRET mode on a microplate reader. Compared with the fluorescence intensity ratio of a control group (0.1% DMSO), the percentage inhibition rates of the compound at each concentration were calculated, and the IC50 value of the compound was obtained by performing nonlinear regression analysis for logarithmic value of the compound concentration - inhibition rate by GraphPad Prism 5 software, which can be seen in Table 1. Table 1 IC50 data of the compounds of the present invention on TRK enzyme activity inhibition

T1 sequence (P08922 28-2347): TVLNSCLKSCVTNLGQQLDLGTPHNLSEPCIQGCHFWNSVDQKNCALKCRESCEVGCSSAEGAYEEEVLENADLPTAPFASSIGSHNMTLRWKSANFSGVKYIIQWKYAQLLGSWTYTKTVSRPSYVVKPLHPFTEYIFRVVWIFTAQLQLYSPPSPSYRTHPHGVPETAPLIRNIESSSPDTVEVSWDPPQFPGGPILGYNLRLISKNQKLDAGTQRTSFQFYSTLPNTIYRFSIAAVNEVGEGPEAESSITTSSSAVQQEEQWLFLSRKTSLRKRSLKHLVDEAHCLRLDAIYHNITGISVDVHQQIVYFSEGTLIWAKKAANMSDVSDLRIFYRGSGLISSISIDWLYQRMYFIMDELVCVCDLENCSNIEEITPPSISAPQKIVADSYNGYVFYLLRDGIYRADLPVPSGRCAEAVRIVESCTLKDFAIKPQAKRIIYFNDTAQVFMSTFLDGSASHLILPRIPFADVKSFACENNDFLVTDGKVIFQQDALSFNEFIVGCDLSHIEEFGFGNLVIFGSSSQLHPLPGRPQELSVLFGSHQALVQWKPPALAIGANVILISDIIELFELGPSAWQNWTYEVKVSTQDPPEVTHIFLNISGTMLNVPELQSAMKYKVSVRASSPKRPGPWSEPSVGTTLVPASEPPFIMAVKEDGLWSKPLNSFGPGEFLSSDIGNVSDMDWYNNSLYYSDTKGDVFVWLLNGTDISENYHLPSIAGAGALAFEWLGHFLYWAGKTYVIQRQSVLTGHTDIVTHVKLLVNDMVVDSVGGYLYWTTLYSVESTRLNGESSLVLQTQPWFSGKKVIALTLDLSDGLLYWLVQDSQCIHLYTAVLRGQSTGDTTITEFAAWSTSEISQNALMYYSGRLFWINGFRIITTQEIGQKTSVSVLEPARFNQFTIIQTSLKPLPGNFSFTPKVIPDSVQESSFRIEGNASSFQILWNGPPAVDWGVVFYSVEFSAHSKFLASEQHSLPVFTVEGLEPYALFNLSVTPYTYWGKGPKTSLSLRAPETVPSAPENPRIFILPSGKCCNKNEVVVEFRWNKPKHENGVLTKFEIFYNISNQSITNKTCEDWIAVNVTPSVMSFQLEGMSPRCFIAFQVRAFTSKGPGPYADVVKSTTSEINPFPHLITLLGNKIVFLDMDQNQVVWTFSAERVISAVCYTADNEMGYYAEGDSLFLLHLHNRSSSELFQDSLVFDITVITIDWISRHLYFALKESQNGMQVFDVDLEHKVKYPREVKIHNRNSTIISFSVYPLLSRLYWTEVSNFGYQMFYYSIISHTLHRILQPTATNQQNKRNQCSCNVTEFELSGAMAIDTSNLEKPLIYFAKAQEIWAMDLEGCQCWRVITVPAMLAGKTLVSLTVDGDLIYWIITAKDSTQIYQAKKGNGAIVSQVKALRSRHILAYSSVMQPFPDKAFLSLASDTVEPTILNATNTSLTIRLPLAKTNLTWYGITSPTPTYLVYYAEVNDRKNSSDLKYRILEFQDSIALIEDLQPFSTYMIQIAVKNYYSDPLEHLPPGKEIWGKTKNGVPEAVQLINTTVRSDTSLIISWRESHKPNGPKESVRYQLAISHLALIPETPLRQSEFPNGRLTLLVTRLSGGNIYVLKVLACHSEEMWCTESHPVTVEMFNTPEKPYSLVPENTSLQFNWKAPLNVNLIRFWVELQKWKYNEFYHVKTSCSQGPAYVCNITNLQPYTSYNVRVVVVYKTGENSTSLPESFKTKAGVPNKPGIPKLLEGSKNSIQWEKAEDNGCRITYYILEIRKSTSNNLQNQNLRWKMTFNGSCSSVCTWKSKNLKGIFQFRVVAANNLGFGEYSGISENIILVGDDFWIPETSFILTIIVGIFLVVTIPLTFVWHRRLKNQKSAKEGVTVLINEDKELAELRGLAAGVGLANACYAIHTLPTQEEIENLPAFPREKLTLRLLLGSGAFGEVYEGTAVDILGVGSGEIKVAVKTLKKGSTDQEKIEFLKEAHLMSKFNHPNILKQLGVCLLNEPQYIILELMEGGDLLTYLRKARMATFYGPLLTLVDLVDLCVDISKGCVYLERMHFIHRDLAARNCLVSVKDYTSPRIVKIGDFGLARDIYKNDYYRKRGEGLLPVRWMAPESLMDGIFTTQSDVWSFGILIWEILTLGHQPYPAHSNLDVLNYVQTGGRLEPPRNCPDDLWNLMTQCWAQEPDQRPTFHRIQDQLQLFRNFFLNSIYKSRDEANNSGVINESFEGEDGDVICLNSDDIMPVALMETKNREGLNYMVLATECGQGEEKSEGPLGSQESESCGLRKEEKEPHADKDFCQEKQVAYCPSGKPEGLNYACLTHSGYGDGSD

IC50 (ROS1)	IC50 (TRKB)	SMILES
0.36 nM	0.45 nM	C[C@H]1Nc2ccn3ncc(c3n2)C(=O)NC[C@@]2(C)Cc3cc(F)cc1c3O2 [Example 8, (3R,11R)-6-fluoro-3,11-dimethyl-10-oxa-2,13,17,1 8,21-pentaazapentacyclo[13.5.2.1^8,11.0^4,9.0^18,22]tric osa-1(21),4,6,8,15(22),16,19-heptaen-14-one]
0.84 nM	1.17 nM	C[C@H]1Nc2ccn3nc(N)c(c3n2)C(=O)NC[C@@]2(C)Cc3cc(F)cc1c3O2 [Example 25, (3R,11R)-16-amino-6-fluoro-3,11-dimethyl-10-oxa-2,13,17,18,21-pentaazapentacyclo[13.5.2.1^8,11.0^4,9. 0^18,22]tricosa-1(21),4,6,8,15(22),16,19-heptaen-14-one]

From patent publication EP3974434B1, “MACROLIDE DERIVATIVES, PREPARATION METHOD AND APPLICATION THEREOF” (Zhejiang Hisun Pharmaceutical Co., Ltd., priority 2019, dated 2020)
